From patent EP1066315B1 (University of Dundee, priority 1998, dated 2008)
Residues, ends and D or L forms follow the SMILES beside them. *: point of attachment. Fmoc = O=C(OCC1c2ccccc2-c2ccccc21)*

Test system: peripheral blood mononuclear cells (PBMC) / autologous TTCF specific T cell clones
Test: TTCF antigen presentation by PBMC, read out as proliferation of autologous T cell clones
Type: cell-based, human
Procedure: The invention will now be described by reference to the following Examples and Figures wherein • Figure 1: Processing of TTCF by a leupeptin-insensitive cysteine endopeptidase activity. (a) TTCF was digested in vitro in the presence of disrupted lysosomes (1-2 µg) in the presence or absence of iodoacetamide (1 mM), leupeptin, E64 or pepstatin (each at 0.1 mg/ml). Digestions were in 0.1 M NH4 acetate at pH 4.5 or Na2HPO4, pH 6.0 or 7.0. After 4 hours at 37°C, the reactions were separated by Tris-tricine SDS-PAGE and stained with Coomassie Blue. (b) Cleavage sites: TTCF digestion products were separated by SDS PAGE and electrophoretically transferred to nitrocellulose membrane. Individual fragments numbered 1-6 were subjected to 5 cycles of Edman degradation. N-terminal sequence obtained is shown in bold following upstream residues from TTCF (tetanus toxin numbering). The N-terminal sequence of His-tagged TTCF was obtained for fragments 1 and 3. (c) Residues Asn 1184 and Glu 1184 in TTCF were mutated to alanine (see Methods) and digestions performed as before. The mutation abolishes cleavage at the mutated site but not at the first site (doublet at 47 kD). In this experiment cleavage of the third site was minimal. • Figure 2: TTCF is processed by an asparaginyl endopeptidase. (a) Chromatography of the TTCF processing activity on Mono-S resin. Fractions eluted by NaCl gradient were incubated with the substrates Z-Ala-Ala-Asn-NHMec or Z-Phe-Arg-NHMec in the presence or absence of E64 (trans-epoxysuccinyl-L-leucylamido-(4-guanidino)butane). […] (b) Fractions as above were incubated with 10 µg TTCF in the presence or absence of E64 for 4 hours at 37°C prior to SDS-PAGE analysis. (c) Each fraction was analysed by SDS-PAGE and Western blotting. Electrophoretically transferred material was probed with an affinity purified antiserum raised against the peptide KGIGSGKVLKSGPQC from human legumain^1. • Figure 3: Peptide inhibitors of AEP block asparaginyl endopeptidase activity and TTCF processing in vitro and in vivo. (a) TTCF was digested with purified AEP (legumain from pig kidney) in the presence or absence of 0.2 mg/ml of the peptides indicated. […] (b) Purified AEP or a crude lysosomal protease mixture were incubated with Z-Ala-Ala-Asn-NHMec, Z-Phe-Arg-NHMec (cathepsins L&B) or Z-Val-Val-Ala NHMec (cathepsin S) in the presence of increasing concentrations of AENK or AEQK. Release of 7-amino-4-methyl coumarin was measured after 10, 20 or 30 minutes. […] At different times the cells were washed, fixed in 0.05 % glutaraldehyde and co-cultured with autologous TTCF specific T cell clones. […] Proteins obtained from commercial sources, as described in the literature or custom peptides were digested with purified pig kidney legumain at pH 5.5 in the presence of 1 mM DTT. […] When present peptide was maintained during antigen pulsing at 1 mg/ml (a) or 2 mg/ml (b). At different times the cells were washed, fixed in 0.05 % glutaraldehyde and antigen presentation measured using proliferation of different autologous TTCF-specific T cell clones. c, AEP pre-processing of TTCF speeds antigen presentation. […] Presentation was measured after 60 minutes of antigen pulsing using EBV B cells.
If AEP plays a role in TTCF processing in antigen presenting cells then sufficiently high levels of the competing AENK peptide might be expected to interfere with normal class II MHC loading of TTCF epitopes. Following a 15 minute preincubation with or without tetrapeptides, freshly isolated peripheral blood mononuclear cells (PBMC) were incubated with TTCF antigen in the continued presence or absence of the peptides. At different times, the cells were washed, fixed and then co-cultured with different autologous T cell clones to assess expression of different peptide/MHC complexes. […] At later times there was some recovery of presentation of these epitopes as expected for a competitive inhibitor. […]

[1] = PBMC, 1 mg/ml peptide, 30 µg/ml TTCF, after 60 minutes of antigen pulsing

C[C@H](NC(=O)OCC1c2ccccc2-c2ccccc21)C(=O)N[C@@H](CCC(=O)O)C(=O)N[C@@H](CC(N)=O)C(=O)N[C@@H](CCCCN)C(N)=O [AENK, Ala-Glu-Asn-Lys-NH] (Fmoc-AENK-NH2)
presentation to T cell clone AK 6 [1]: profoundly inhibited | presentation to T cell clones AK 20 and AK 90 [1]: undetectable | presentation to other clones recognising other regions of TTCF (eg AK 111, 71 and 33) (PBMC, 1 mg/ml peptide, 30 µg/ml TTCF, Fig 3c): not affected | presentation to most clones (eg AK 5, 90 & 6) at early times (PBMC, 1 mg/ml peptide, between 30 and 60 minutes of antigen pulsing, Fig 9a): undetactable | inhibitory effect on presentation when TTCF pre-digested in vitro by AEP is used (TTCF pre-digested in vitro by AEP, data not shown): could be overridden
